Assays:
SMMC-7721 [1] = assay: Potency index, ratio of DDP IC50 to compound IC50 for human SMMC7721 cells; type: functional
A549 = assay: Antiproliferative activity against human A549 cells assessed as reduction in cell viability incubated for 48 hrs by MTS assay; type: functional, cell-based; details: A549, 48 h
SMMC-7721 [2] = assay: Antiproliferative activity against human SMMC7721 cells assessed as reduction in cell viability incubated for 48 hrs by MTS assay; type: functional, cell-based; details: SMMC-7721, 48 h
HL-60 = assay: Antiproliferative activity against human HL60 cells assessed as reduction in cell viability incubated for 48 hrs by MTS assay; type: functional, cell-based; details: HL-60, 48 h
SW480 = assay: Antiproliferative activity against human SW480 cells assessed as reduction in cell viability incubated for 48 hrs by MTS assay; type: functional, cell-based; details: SW480, 48 h
MCF7 = assay: Antiproliferative activity against human MCF7 cells assessed as reduction in cell viability incubated for 48 hrs by MTS assay; type: functional, cell-based; details: MCF7, 48 h

Row | SMILES | IC50 (A549) [nM] | IC50 (SMMC-7721 [2]) [nM] | IC50 (HL-60) [nM] | IC50 (SW480) [nM] | IC50 (MCF7) [nM] | Ratio IC50 (SMMC-7721 [1])
1 | C[C@@H]1CC[C@@]2(OC1)O[C@H]1C[C@H]3[C@@H]4CC=C5C[C@H](n6c[n+](Cc7ccccc7Br)c7ccccc76)CC[C@]5(C)[C@H]4CC[C@]3(C)[C@H]1[C@@H]2C.[Br-] | 4470 | 210 | 340 | 2100 | 2140 | 54
2 | CC(C)CCC[C@@H](C)[C@H]1CC[C@H]2[C@@H]3C[C@H](n4cc[n+](CC(=O)c5ccccc5)c4)[C@]45C[C@H]4CC[C@]5(C)[C@H]3CC[C@]12C | 7280 | 1290 | 1530 | 6060 | 6980 | –
3 | C[C@@H]1CC[C@@]2(OC1)O[C@H]1C[C@H]3[C@@H]4CC=C5C[C@@H](n6cc[n+](Cc7ccccc7Br)c6)CC[C@]5(C)[C@H]4CC[C@]3(C)[C@H]1[C@@H]2C | 2990 | 2270 | 920 | 5370 | 1880 | –
4 | COc1ccc(C(=O)C[n+]2ccn([C@@H]3CC[C@@]4(C)C(=CC[C@H]5[C@@H]6C[C@@H]7O[C@]8(CC[C@@H](C)CO8)[C@@H](C)[C@@H]7[C@@]6(C)CC[C@@H]54)C3)c2)cc1 | 1940 | 1510 | 1250 | 2590 | 1470 | –
5 | C[C@@H]1CC[C@@]2(OC1)O[C@H]1C[C@H]3[C@@H]4CC=C5C[C@H](n6cc[n+](CC(=O)c7ccc8ccccc8c7)c6)CC[C@]5(C)[C@H]4CC[C@]3(C)[C@H]1[C@@H]2C | 3340 | 1890 | 960 | 3620 | 2270 | –

Continued by falling IC50 (A549), values first:

Row | IC50 (A549) [nM] | IC50 (SMMC-7721 [2]) [nM] | IC50 (HL-60) [nM] | IC50 (SW480) [nM] | IC50 (MCF7) [nM] | SMILES | Ratio IC50 (SMMC-7721 [1])
6 | 9570 | 900 | 440 | 3220 | 2910 | Cc1cc2c(cc1C)[n+](CC(=O)c1ccccc1)cn2[C@@H]1CC[C@@]2(C)C(=CC[C@H]3[C@@H]4C[C@@H]5O[C@]6(CC[C@@H](C)CO6)[C@@H](C)[C@@H]5[C@@]4(C)CC[C@@H]32)C1 | –
7 | 8820 | 1880 | 10600 | 10500 | > 20000 | CC(C)CCC[C@@H](C)[C@H]1CC[C@H]2[C@@H]3CC=C4C[C@H](n5cc[n+](CC(=O)c6ccc7ccccc7c6)c5)CC[C@]4(C)[C@H]3CC[C@]12C | –
8 | 7870 | 4410 | 2680 | 6470 | 5080 | C[C@]12CC[C@H]3[C@@H](CC=C4C[C@@H](O)CC[C@@]43C)[C@@H]1CC[C@@H]2n1cc[n+](Cc2ccc3ccccc3c2)c1 | –
9 | 7300 | 7150 | 1090 | 8180 | 5180 | C[C@@H]1CC[C@@]2(OC1)O[C@H]1C[C@H]3[C@@H]4CC=C5C[C@H](n6cc[n+](CC(=O)c7ccccc7)c6)CC[C@]5(C)[C@H]4CC[C@]3(C)[C@H]1[C@@H]2C | –

— ChEMBL document CHEMBL4340516, “Synthesis and antitumor activity of novel steroidal imidazolium salt derivatives” (Eur J Med Chem, 2019)
